Measurements as given in publication PMC11697409, “Design of Natterins-based peptides improves antimicrobial and antiviral activities” (Biotechnology Reports, 2024).
Read-outs that look alike come from different tables or passages of the source. Residues, ends and D or L forms follow the SMILES beside them. No end group written: not given here.

Tests used:
trypsin [1] = assay: Peptide stability to trypsin, HPLC-MS; format: in vitro ADME; settings: trypsin 20 μg/mL, peptide 100 μg/mL, incubation time not given; for Change after trypsin treatment, mass spectra: ESI-MS; for Change after trypsin treatment, HPLC chromatogram: HPLC C-18, UV 220 nm
Protocol: Peptide stability was evaluated under various conditions. To investigate the impact of temperature on peptide structure, samples were incubated at 37 °C and 60 °C for 24 h. A control sample was kept at -4 °C. To evaluate the distribution under acidic conditions, the peptides were dissolved in a 0.074 M HCl solution, resulting in a pH of 3. For evaluation under basic conditions, the peptides were dissolved in a 0.18 M NaOH solution, resulting in a pH of 11. A control sample was maintained at pH 7. Additionally, samples were exposed to trypsin solutions at a concentration of 20 µg/mL. All samples underwent analysis using High-Performance Liquid Chromatography (HPLC) coupled with Mass Spectrometry (LC/MS-2020 EV - Prominence; Shimadzu Corporation, Tokyo, Japan). The HPLC system comprised LC-10AD mobile phase pumps, an Ultrasphere C-18 column (5 µm; 4.6 × 250 mm), a UV-vis SPD-10AV detector set at a wavelength of 220 nm, and a mass spectrometer operating in electrospray ionization (ESI) mode with a quadrupole separator.
In mass spectrometry assays, an alkaline pH can lead to diverse outcomes. Specifically, in the analysis of proteins and peptides, an alkaline environment may induce unintended chemical modifications in certain samples, impacting ionization, fragmentation, and the detection of reference molecules. Additionally, the peptides underwent treatment with a trypsin solution at a concentration of 20 μg/mL.

human RBC = assay: Hemolytic test; format: cell-based; settings: 50 μM, 1 h at 37 °C, A570, 1 % TritonX-100 as positive control; highest percentage observed
Protocol: To perform the hemolytic test, human RBC was obtained from a volunteer donor. After centrifugation at 1000 xg for 5 min, the RBC pellets were resuspended in 5 % (vol/vol) sterile saline at different concentrations of peptides NATT2_06 and NATT4_01, and subsequently incubated at 37 °C for 1 hour. The supernatants were transferred to a 96-well plate, and the absorbance at 570 nm (A570) was measured. 0.12 % DMSO and 1 % TritonX-100 were used as negative and positive control, respectively. The hemolysis rate was calculated as Eq 1: Hemolysis%=A(sample)−A(DMSO)/A(Triton)−A(DMSO)x100

G. mellonella larvae = assay: Toxicity in Galleria mellonella; format: in vivo; settings: 10 µL of 50 µM injected into the last left proleg, ten larvae per group, 7 days, three independent experiments
Protocol: For this study, the methodologies described by Mylonakis et al. and Jorjão et al., with some modifications were employed. G. mellonella larvae in their final larval stage were used for the experiment. Ten randomly selected G. mellonella larvae of similar weight and size (250 to 350 mg) were used per group in all assays. Syringes (Hamilton Inc., USA) used for injections were sterilized with peracetic acid (Henkel - Ecolab GmbH, Düsseldorf, Germany) according to the manufacturer's instructions prior to inoculation. Each larva was injected with 10 µL of each peptide (NATT2_06 and NATT4_01) at a concentration of 50 µM into the last left proleg. A control group was injected with PBS to assess overall viability. The number of deceased G. mellonella was recorded every 24 h after peptide injection, with monitoring continuing for 7 days across three independent experiments. […] The experiment concluded either when all larvae in the experimental group had died or transitioned into the pupal form.

[2] = test system: Chikungunya virus (CHIKV, ECSA genotype) in Huh-7 cells; format: cell-based; settings: vs untreated CHIKV control
Protocol: . First, the viral propagation and titration were performed in the adherent African green monkey kidney epithelial (Vero) cells (ATCC CRL-1586). The virus was grown in Vero cultured in MEM medium (Gibco, Waltham, MA, USA) supplemented with 10 % fetal bovine serum (FBS, Gibco), 100 U/mL penicillin, and 100 μg/mL streptomycin (Gibco, Waltham, MA, USA)-M10) for 48 h Then, the supernatant was collected, harvested, and titrated as previously described. The titer obtained for CHIKV was 9.3 × 10^6 PFU/ml.
The immortalized human hepatocytes derived from the hepatocarcinoma of an individual (Huh-7 lineage, CLS 300156) were cultured. The Huh-7 were grown in Minimum Essential Medium (Advanced MEM, Gibco®, USA), supplemented with 10 % (v/v) heat-inactivated fetal bovine serum (FBS) (Gibco®, USA), 100 U/mL penicillin, and 100 μg/mL streptomycin (PenStrep – Gibco®, USA), along with 2 mM L-glutamine (Gibco®, USA), and maintained in a humidified atmosphere with 5 % CO2 at 37 °C. […]
The second assay, named "co-treatment" (Figure S1b), involved removing the culture medium from the wells, washing with PBS, followed by simultaneous inoculation of CHIKV and peptides, diluted in the same manner in culture medium with the same supplementation, in triplicate. […] Cells were also monitored for 12 h. […]
After conducting the assays, each viral RNA in the samples' supernatant was extracted using the QIAamp® Viral RNA Mini Kit (QIAGEN®, Germany). […] For the molecular characterization of NATT peptide treatment, RNA samples extracted from the plaque challenge assays' supernatants and viral stock dilutions underwent quantitative reverse transcription PCR (RT-qPCR) assays. […]
For the RT-qPCR reaction, the AgPath-ID® One Step RT-qPCR kit (Applied Biosystems®, USA) was used for each extracted RNA in duplicate. […] All detection and quantification of viral RNA was done by real-time PCR of each sample (Table S1 and Figure S14). […]

trypsin [3] = settings: cited from earlier work
Protocol: In the case of the peptide Cap11, this loss of activity occurs after 15 min of incubation. Conversely, a brief exposure of up to 5 min to trypsin enhances the antimicrobial activity of peptides such as Cap11–1-18m² by a factor of 2 [76]. […] The sp ...

[4] = various assays; cited from earlier work
From the text: Similarly, peptides including HKPLP, Cap18, Cap11, Cap11–1-18m², Cecropin B, Cecropin P1, Melittin, Indolic ...

Molecule | time of incubation with trypsin until antimicrobial activity is entirely lost (trypsin [3]) [s] | temperature withstood [4] | also measured
CC(C)C[C@H](NC(=O)[C@H](CCCCN)NC(=O)[C@@H]1CCCN1C(=O)[C@H](CCCNC(=N)N)NC(=O)[C@H](CC(C)C)NC(=O)[C@@H](NC(=O)[C@@H](N)[C@@H](C)O)[C@@H](C)O)C(=O)N[C@@H](CCCCN)C(=O)N[C@@H](CO)C(=O)N[C@@H](CCCCN)C(N)=O [NATT2_06] (H-TTLRPKLKSK-NH2) |  |  | Change after trypsin treatment, mass spectra (trypsin [1]): displayed notable changes in mass; Change after trypsin treatment, HPLC chromatogram (trypsin [1]): displayed notable changes in mass; hemolysis (human RBC): 2%; Deaths of G. mellonella larvae (G. mellonella larvae): only three deaths occurred
CC(C)C[C@H](NC(=O)[C@H](CCCCN)NC(=O)CNC(=O)[C@H](CC(C)C)NC(=O)CNC(=O)[C@H](Cc1ccc(O)cc1)NC(=O)[C@H](CCCCN)NC(=O)[C@H](CC(N)=O)NC(=O)[C@H](CCCCN)NC(=O)[C@H](C)NC(=O)[C@@H](NC(=O)[C@H](Cc1ccc(O)cc1)NC(=O)[C@@H](N)CC(C)C)C(C)C)C(N)=O [NATT4_01] (H-LYVAKNKYGLGKL-NH2) |  |  | Change after trypsin treatment, mass spectra (trypsin [1]): fragments of the peptide were discernible; Change after trypsin treatment, HPLC chromatogram (trypsin [1]): no notable shifts observed in the chromatograms; Percentage of viral inhibition, co-treatment ([2]; 25 μM): 25,31%; Percentage of viral inhibition, co-treatment ([2]; 50 μM): 22,62%; Percentage of viral inhibition, co-treatment ([2]; 3125 μM (so in the source)): 22,44%; Deaths of G. mellonella larvae (G. mellonella larvae): no deaths were observed
Cap18 | ≤ 30 | up to 100 °C | 
Cecropin B | ≤ 30 | up to 100 °C | 
Cecropin P1 (SWLSKTAKKLENSAKKRISEGIAIAIQGGPR; Cecropin-P1; UniProt P14661 14-44, looked up) | ≤ 30 | up to 100 °C | 
Indolicidin (ILPWKWPWWPWRR; ends and bridges not checked; UniProt P33046 131-143, looked up) | ≤ 30 | up to 100 °C | 
Melittin | ≤ 30 | up to 100 °C | 
